Measured values as given in patent US20160145247A1, “Aminomethyl-Biaryl Derivatives Complement Factor D inhibitors and uses thereof” (NOVARTIS AG, priority 2013, published 2016).

What follows are compounds tested against T1, factor D (Homo sapiens, UniProt P00746) (assay: factor D inhibition assay of Biological Example 2).
T1 construct: made in house; host or cells: E. coli
Type: biochemical

T1 sequence (P00746 26-253): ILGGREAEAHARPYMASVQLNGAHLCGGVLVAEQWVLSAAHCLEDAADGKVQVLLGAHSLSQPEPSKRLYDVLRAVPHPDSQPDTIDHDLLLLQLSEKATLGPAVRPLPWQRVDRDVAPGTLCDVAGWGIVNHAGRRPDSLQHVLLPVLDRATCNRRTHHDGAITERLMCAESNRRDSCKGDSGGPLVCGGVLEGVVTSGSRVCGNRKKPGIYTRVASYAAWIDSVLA

**Q.** Which IC50 does the source give for NCc1cc(F)cc(-c2cc(NC[C@H]3CCCO3)cc(C(=O)Nc3ccccc3CC(=O)O)c2)c1 [Example 14-D] here?
**A.** The IC50 was 0.021 µM.

**Q.** COCCNc1cc(C(=O)Nc2ccccc2CC(=O)O)cc(-c2cc(F)cc(CN)c2)c1 [Example 14-E] was tested. Which IC50 did it give?
**A.** The IC50 was 0.01 µM.

**Q.** NCc1cc(F)cc(-c2cc(OC[C@@H]3CCCO3)cc(C(=O)Nc3ccccc3CC(=O)O)c2)c1 [Example 15-B, (S)-2-(2-(3′-(Aminomethyl)-5′-fluoro-5-((tetrahydrofuran-2-yl)methoxy)-[1,1′-biphenyl]-3-ylcarboxamido)phenyl)acetic acid] was tested. Which IC50 did it give?
**A.** Its IC50 is 0.009 µM.

**Q.** Which IC50 does the source give for NCc1cccc(-c2cccc(C#Cc3ccccc3CC(=O)O)c2)c1 [Example 16-C, 2-(2-((3′-(Aminomethyl)-[1,1′-biphenyl]-3-yl)ethynyl)phenyl)acetic acid] here?
**A.** Its IC50 is 0.338 µM.

**Q.** With NCc1cccc(-c2cccc(CCc3ccccc3CC(=O)O)c2)c1 [Example 16-D, 2-(2-(2-(3′-(Aminomethyl)-[1,1′-biphenyl]-3-yl)ethyl)phenyl)acetic acid] as the compound, how does the IC50 read?
**A.** Its IC50 is 0.47 µM.

**Q.** How did the IC50 turn out when NCc1cccc(-c2cccc(C(=O)Nc3cc(Cl)ccc3CC(=O)O)c2)c1 [Example 17-B, 2-(2-(3′-(Aminomethyl)-[1,1′-biphenyl]-3-ylcarboxamido)-4-chlorophenyl)acetic acid] was run?
**A.** Its IC50 is 0.399 µM.

**Q.** With NCc1cc(F)cc(-c2cccc(C(=O)Nc3ccc(Br)cc3CC(=O)O)c2)c1 [Example 18-B, 2-(2-(3′-(Aminomethyl)-5′-fluoro-[1,1′-biphenyl]-3-ylcarboxamido)-5-bromophenyl)acetic acid] as the compound, how does the IC50 read?
**A.** Its IC50 is 8.79 µM.

**Q.** Which IC50 does the source give for NCc1cc(F)cc(-c2cccc(C(=O)Nc3ccccc3CC(=O)O)n2)c1 [Example 20-B, 2-(2-(6-(3-(Aminomethyl)-5-fluorophenyl)picolinamido)phenyl)acetic acid] here?
**A.** The IC50 was 0.016 µM.

**Q.** Which IC50 does the source give for NCc1cc(F)cc(-c2cccc(C(=O)Nc3cc(Br)ccc3CC(=O)O)c2)c1 [Example 21-A] here?
**A.** The IC50 was 0.414 µM.

**Q.** Cc1ccc(CC(=O)O)c(NC(=O)c2cccc(-c3cc(F)cc(CN)c3)c2)c1 [Example 21-B] was tested. Which IC50 did it give?
**A.** The IC50 was 0.047 µM.

**Q.** With Cc1cccc(CC(=O)O)c1NC(=O)c1cccc(-c2cc(F)cc(CN)c2)c1 [Example 21-C] as the compound, how does the IC50 read?
**A.** Its IC50 is 0.109 µM.

**Q.** How did the IC50 turn out when NCc1cc(F)cc(-c2cccc(C(=O)Nc3c(F)cccc3CC(=O)O)c2)c1 [Example 21-D] was run?
**A.** Its IC50 is 0.989 µM.

**Q.** How did the IC50 turn out when NCc1cc(F)cc(-c2cccc(C(=O)Nc3c(Br)cccc3CC(=O)O)n2)c1 [Example 21-E] was run?
**A.** The IC50 was 0.086 µM.

**Q.** With NCc1cc(F)cc(-c2cccc(C(=O)Nc3cccc(Cl)c3CC(=O)O)c2)c1 [Example 21-F] as the compound, how does the IC50 read?
**A.** Its IC50 is 3.12 µM.

**Q.** NCc1cc(F)cc(-c2cccc(C(=O)Nc3cccc(Br)c3CC(=O)O)c2)c1 [Example 21-G] was tested. Which IC50 did it give?
**A.** Its IC50 is 7.68 µM.

**Q.** How did the IC50 turn out when Cc1cccc(NC(=O)c2cccc(-c3cc(F)cc(CN)c3)c2)c1CC(=O)O [Example 21-H] was run?
**A.** Its IC50 is 0.94 µM.

**Q.** For NCc1cc(F)cc(-c2cccc(C(=O)Nc3cc(F)ccc3CC(=O)O)c2)c1 [Example 21-I], which IC50 is on record?
**A.** Its IC50 is 0.469 µM.

**Q.** How did the IC50 turn out when NCc1cc(F)cc(-c2cccc(C(=O)Nc3ccc(F)cc3CC(=O)O)c2)c1 [Example 21-J] was run?
**A.** Its IC50 is 0.517 µM.

**Q.** COc1cccc(CC(=O)O)c1NC(=O)c1cccc(-c2cc(F)cc(CN)c2)c1 [Example 21-K] was tested. Which IC50 did it give?
**A.** Its IC50 is 0.126 µM.

**Q.** CCc1ccc(NC(=O)c2cccc(-c3cc(F)cc(CN)c3)n2)c(CC(=O)O)c1 [Example 21-L] was tested. Which IC50 did it give?
**A.** The IC50 was 0.105 µM.

**Q.** How did the IC50 turn out when Cc1ccc(CC(=O)O)c(NC(=O)c2cccc(-c3cc(F)cc(CN)c3)n2)c1 [Example 21-M] was run?
**A.** Its IC50 is 0.022 µM.

**Q.** How did the IC50 turn out when NCc1cc(F)cc(-c2cccc(C(=O)Nc3c(Cl)cccc3CC(=O)O)n2)c1 [Example 21-N] was run?
**A.** Its IC50 is 0.138 µM.

**Q.** CCc1ccc(CC(=O)O)c(NC(=O)c2cccc(-c3cc(F)cc(CN)c3)n2)c1 [Example 21-O] was tested. Which IC50 did it give?
**A.** Its IC50 is 0.012 µM.

**Q.** With NCc1cc(F)cc(-c2cccc(C(=O)Nc3ccc(Cl)cc3CC(=O)O)n2)c1 [Example 21-P] as the compound, how does the IC50 read?
**A.** Its IC50 is 0.118 µM.

**Q.** With COc1ccc(CC(=O)O)c(NC(=O)c2cccc(-c3cc(F)cc(CN)c3)n2)c1 [Example 21-Q] as the compound, how does the IC50 read?
**A.** The IC50 was 0.022 µM.

**Q.** Cc1ccc(NC(=O)c2cccc(-c3cc(F)cc(CN)c3)c2)c(CC(=O)O)c1 [Example 22-C, 2-(2-(3′-(aminomethyl)-5′-fluoro-[1,1′-biphenyl]-3-ylcarboxamido)-5-methylphenyl)acetic acid] was tested. Which IC50 did it give?
**A.** The IC50 was 0.835 µM.

**Q.** With CCc1ccc(NC(=O)c2cccc(-c3cc(F)cc(CN)c3)c2)c(CC(=O)O)c1 [Example 23-C, 2-(2-(3′-(Aminomethyl)-5′-fluoro-[1,1′-biphenyl]-3-ylcarboxamido)-5-ethylphenyl)acetic acid] as the compound, how does the IC50 read?
**A.** The IC50 was 0.396 µM.

**Q.** How did the IC50 turn out when CC(O)c1ccc(NC(=O)c2cccc(-c3cc(F)cc(CN)c3)c2)c(CC(=O)O)c1 (centres unmarked) [Example 24, 2-(2-(3′-(Aminomethyl)-5′-fluoro-[1,1′-biphenyl]-3-ylcarboxamido)-5-(1-hydroxyethyl)phenyl)acetic acid] was run?
**A.** The IC50 was 1.74 µM.

**Q.** With CCc1ccc(NC(=O)c2cc(NC[C@@H]3CCCO3)cc(-c3cc(F)cc(CN)c3)c2)c(CC(=O)O)c1 [Example 25-D, (S)-2-(2-(3′-(Aminomethyl)-5′-fluoro-5-(((tetrahydrofuran-2-yl)methyl)amino)-[1,1′-biphenyl]-3-ylcarboxamido)-5-ethylphenyl)acetic acid] as the compound, how does the IC50 read?
**A.** Its IC50 is 0.011 µM.

**Q.** For NCc1cccc(-c2csc(C(=O)Nc3ccccc3CC(=O)O)n2)c1 [Example 26-B, 2-(2-(4-(3-(Aminomethyl)phenyl)thiazole-2-carboxamido)phenyl)acetic acid], which IC50 is on record?
**A.** The IC50 was 0.094 µM.

**Q.** Which IC50 does the source give for NCc1cccc(-c2nc(C(=O)Nc3ccccc3CC(=O)O)cs2)c1 [Example 27, 2-(2-(2-(3-(Aminomethyl)phenyl)thiazole-4-carboxamido)phenyl)acetic acid] here?
**A.** Its IC50 is 0.05 µM.

**Q.** With NCc1cc(F)cc(-c2csc(C(=O)Nc3ccccc3CC(=O)O)n2)c1 [Example 28-B, 2-(2-(4-(3-(aminomethyl)-5-fluorophenyl)thiazole-2-carboxamido)phenyl)acetic acid] as the compound, how does the IC50 read?
**A.** The IC50 was 0.057 µM.

**Q.** With NCc1cc(F)cc(-c2nc(C(=O)Nc3ccccc3CC(=O)O)cs2)c1 [Example 29, 2-(2-(2-(3-(aminomethyl)-5-fluorophenyl)thiazole-4-carboxamido)phenyl)acetic acid] as the compound, how does the IC50 read?
**A.** Its IC50 is 0.062 µM.

**Q.** NCc1cc(F)cc(-c2nc(C(=O)Nc3ccccc3CC(=O)O)c(Cl)s2)c1 [Example 30-D, 2-(2-(2-(3-(aminomethyl)-5-fluorophenyl)-5-chlorothiazole-4-carboxamido)phenyl)acetic acid] was tested. Which IC50 did it give?
**A.** Its IC50 is 0.031 µM.

**Q.** Which IC50 does the source give for CNc1sc(-c2cc(F)cc(CN)c2)nc1C(=O)Nc1ccccc1CC(=O)O [Example 31-B, 2-(2-(2-(3-(aminomethyl)-5-fluorophenyl)-5-(methylamino)thiazole-4-carboxamido)phenyl)acetic acid] here?
**A.** Its IC50 is 0.016 µM.

**Q.** Which IC50 does the source give for NCc1cc(F)cc(-c2nc(C(=O)Nc3ccccc3CC(=O)O)c(N3CCOCC3)s2)c1 [Example 32, 2-(2-(2-(3-(aminomethyl)-5-fluorophenyl)-5-morpholinothiazole-4-carboxamido)phenyl)acetic acid] here?
**A.** The IC50 was 0.049 µM.

**Q.** For NCc1cc(F)cc(-c2nc(C(=O)Nc3ccccc3CC(=O)O)c(NC[C@@H]3CCCO3)s2)c1 [Example 33, (S)-2-(2-(2-(3-(Aminomethyl)-5-fluorophenyl)-5-(((tetrahydrofuran-2-yl)methyl)amino)thiazole-4-carboxamido)phenyl)acetic acid], which IC50 is on record?
**A.** The IC50 was 0.007 µM.

**Q.** How did the IC50 turn out when CNc1sc(-c2cc(F)cc(CN)c2)nc1C(=O)Nc1cc(C)ccc1CC(=O)O [Example 34-C, 2-(2-(2-(3-(Aminomethyl)-5-fluorophenyl)-5-(methylamino)thiazole-4-carboxamido)-4-methylphenyl)acetic acid] was run?
**A.** The IC50 was 0.005 µM.

**Q.** Which IC50 does the source give for NCc1cc(F)cc(-c2nc(C(=O)Nc3ccccc3CC(=O)O)c(C3CC3)s2)c1 [Example 35-B, 2-(2-(2-(3-(Aminomethyl)-5-fluorophenyl)-5-cyclopropylthiazole-4-carboxamido)phenyl)acetic acid] here?
**A.** The IC50 was 0.013 µM.

**Q.** With CCc1sc(-c2cc(F)cc(CN)c2)nc1C(=O)Nc1ccccc1CC(=O)O [Example 36-C, 2-(2-(2-(3-(Aminomethyl)-5-fluorophenyl)-5-ethylthiazole-4-carboxamido)phenyl)acetic acid] as the compound, how does the IC50 read?
**A.** The IC50 was 0.036 µM.

**Q.** NCc1cccc(-c2cccc(C(=O)Nc3ccccc3CC(=O)O)c2)c1F [Example 37, 2-(2-(3′-(Aminomethyl)-2′-fluoro-[1,1′-biphenyl]-3-ylcarboxamido)phenyl)acetic acid] was tested. Which IC50 did it give?
**A.** The IC50 was 0.041 µM.

**Q.** With NCc1cccc(-c2cc(C(=O)Nc3ccccc3CC(=O)O)ccn2)c1 [Example 38, 2-(2-(2-(3-(Aminomethyl)phenyl)isonicotinamido)phenyl)acetic acid] as the compound, how does the IC50 read?
**A.** The IC50 was 14.3 µM.

**Q.** NCc1cccc(-c2ccnc(C(=O)Nc3ccccc3CC(=O)O)c2)c1 [Example 39, 2-(2-(4-(3-(Aminomethyl)phenyl)picolinamido)phenyl)acetic acid] was tested. Which IC50 did it give?
**A.** The IC50 was 40.5 µM.

**Q.** For NCc1cccc(-c2cncc(C(=O)Nc3ccccc3CC(=O)O)c2)c1 [Example 40, 2-(2-(5-(3-(Aminomethyl)phenyl)nicotinamido)phenyl)acetic acid], which IC50 is on record?
**A.** The IC50 was 12.8 µM.

**Q.** NCc1cccc(-c2cc(Cl)cc(C(=O)Nc3ccccc3CC(=O)O)n2)c1 [Example 41, 2-(2-(6-(3-(Aminomethyl)phenyl)-4-chloropicolinamido)phenyl)acetic acid] was tested. Which IC50 did it give?
**A.** Its IC50 is 0.074 µM.

**Q.** How did the IC50 turn out when NCc1cccc(-c2cc(C(=O)Nc3ccccc3CC(=O)O)nc(-c3cccc(CN)c3)c2)c1 [Example 42, 2-(2-(4,6-bis(3-(Aminomethyl)phenyl)picolinamido)phenyl)acetic acid] was run?
**A.** Its IC50 is 0.013 µM.

**Q.** Which IC50 does the source give for NCc1cccc(-c2nc(C(=O)Nc3ccccc3CC(=O)O)c[nH]2)c1 [Example 43, 2-(2-(2-(3-(Aminomethyl)phenyl)-1H-imidazole-4-carboxamido)phenyl)acetic acid] here?
**A.** Its IC50 is 1.13 µM.

**Q.** NCc1cccc(-c2cc(N3CCOCC3)cc(C(=O)Nc3ccccc3CC(=O)O)n2)c1 [Example 44, 2-(2-(6-(3-(Aminomethyl)phenyl)-4-morpholinopicolinamido)phenyl)acetic acid] was tested. Which IC50 did it give?
**A.** Its IC50 is 0.009 µM.

**Q.** Which IC50 does the source give for NCc1cccc(-c2cc(NC[C@@H]3CCCO3)cc(C(=O)Nc3ccccc3CC(=O)O)n2)c1 [Example 45, (S)-2-(2-(6-(3-(Aminomethyl)phenyl)-4-(((tetrahydrofuran-2-yl)methyl)amino)picolinamido)phenyl)acetic acid] here?
**A.** The IC50 was 0.012 µM.

**Q.** For CNc1cc(C(=O)Nc2ccccc2CC(=O)O)nc(-c2cccc(CN)c2)c1 [Example 46, 2-(2-(6-(3-(aminomethyl)phenyl)-4-(methylamino)picolinamido)phenyl)acetic acid], which IC50 is on record?
**A.** The IC50 was 0.006 µM.
